Measurements as given in ChEMBL document CHEMBL2069256, “Development of Toxoplasma gondii calcium-dependent protein kinase 1 (TgCDPK1) inhibitors with potent anti-toxoplasma activity” (J Med Chem, 2012).

How the values were obtained:
Toxoplasma gondii [1] = assay: microbe, parasite or virus in culture; details: 44 h
[2] = Inhibition of Toxoplasma gondii CDPK1 Gly128Met mutant using syntide-2 peptide as substrate after 90 mins by kinase glo-luciferase assay
[3] = target: Tyrosine-protein kinase Lck (Homo sapiens, UniProt P06239); assay: Inhibition of human LCK using Ac-EIYGEFKKK-OH as substrate after 60 mins
[4] = Cytotoxicity against human CRL8155 cells assessed as inhibition of cell growth after 48 to 72 hrs by alamar blue assay; format: cell-based
Ephrin type-A receptor 3 = target: T1, Ephrin type-A receptor 3 (Homo sapiens, UniProt P29320); assay: Inhibition of human EPHA3 using myelin basic protein as substrate after 120 mins
T1 sequence (P29320 whole entry): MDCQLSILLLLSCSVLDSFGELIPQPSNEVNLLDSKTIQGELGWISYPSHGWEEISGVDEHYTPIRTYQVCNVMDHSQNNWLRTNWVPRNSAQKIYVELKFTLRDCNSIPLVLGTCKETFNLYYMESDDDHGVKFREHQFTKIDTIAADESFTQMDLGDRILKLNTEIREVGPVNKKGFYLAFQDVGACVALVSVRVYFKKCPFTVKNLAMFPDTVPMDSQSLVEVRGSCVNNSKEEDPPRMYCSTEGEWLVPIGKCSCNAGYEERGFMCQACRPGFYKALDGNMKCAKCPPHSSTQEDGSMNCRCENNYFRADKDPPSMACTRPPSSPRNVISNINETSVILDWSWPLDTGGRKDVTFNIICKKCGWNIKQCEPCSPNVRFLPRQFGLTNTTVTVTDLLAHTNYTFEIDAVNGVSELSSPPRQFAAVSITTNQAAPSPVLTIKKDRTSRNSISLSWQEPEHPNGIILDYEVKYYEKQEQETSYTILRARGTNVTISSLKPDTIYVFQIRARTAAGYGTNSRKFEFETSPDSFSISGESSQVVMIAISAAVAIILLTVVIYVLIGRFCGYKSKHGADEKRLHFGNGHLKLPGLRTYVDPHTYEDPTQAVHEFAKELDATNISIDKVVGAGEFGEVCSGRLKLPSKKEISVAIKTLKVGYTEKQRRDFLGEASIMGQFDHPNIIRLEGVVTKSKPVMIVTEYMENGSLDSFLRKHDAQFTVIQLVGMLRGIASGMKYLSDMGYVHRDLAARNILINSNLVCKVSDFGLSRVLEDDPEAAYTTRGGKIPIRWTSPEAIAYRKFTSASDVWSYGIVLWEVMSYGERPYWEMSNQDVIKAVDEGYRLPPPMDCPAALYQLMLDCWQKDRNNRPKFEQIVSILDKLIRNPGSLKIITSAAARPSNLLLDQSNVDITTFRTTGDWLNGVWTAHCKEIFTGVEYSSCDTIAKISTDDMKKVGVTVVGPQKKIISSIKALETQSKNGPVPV

[5] = target: Epidermal growth factor receptor (Homo sapiens, UniProt P00533); assay: Inhibition of human EGFR using poly glu-Tyr as substrate after 30 mins
[6] = target: Tyrosine-protein kinase CSK (Homo sapiens, UniProt P41240); assay: Inhibition of human CSK using Ac-KKKKEEIYFFF-OH as substrate after 180 mins
[7] = target: Tyrosine-protein kinase ABL1 (Homo sapiens, UniProt P00519); assay: Inhibition of human ABL using EAIYAAPFAKKK-OH as substrate by phosphor imaging method
[8] = target: Mitogen-activated protein kinase 14 (Homo sapiens, UniProt Q16539); assay: Inhibition of human p38alpha using myelin basic protein as substrate after 180 mins
HL-60 = assay: Cytotoxicity against human HL60 cells assessed as inhibition of cell growth after 48 to 72 hrs by alamar blue assay; format: cell-based
[9] = target: Proto-oncogene tyrosine-protein kinase Src (Homo sapiens, UniProt P12931)
[10] = Inhibition of Toxoplasma gondii CDPK1 using syntide-2 peptide as substrate after 90 mins by kinase glo-luciferase assay
Toxoplasma gondii [11] = assay: Antiparasitic activity against Toxoplasma gondii expressing CDPK1 Gly128Met mutant; format: functional, organism-based

SMILES | EC50 (Toxoplasma gondii [1]) [nM] | further results
CCCOc1ccc2cc(-c3nn(C(C)C)c4ncnc(N)c34)ccc2c1 | > 6250 | –
CCCOc1ccc2cc(-c3nn(CC4CCNCC4)c4ncnc(N)c34)ccc2c1 | 160 | –
CC(C)COc1ccc2cc(-c3nn(C(C)C)c4ncnc(N)c34)ccc2c1 | 310 | –
CC(C)COc1ccc2cc(-c3nn(CC4CCNCC4)c4ncnc(N)c34)ccc2c1 | 210 | –
CCCCOc1ccc2cc(-c3nn(C(C)C)c4ncnc(N)c34)ccc2c1 | 90 | –
CCCCOc1ccc2cc(-c3nn(CC4CCNCC4)c4ncnc(N)c34)ccc2c1 | 60 | –
CC(C)n1nc(-c2ccc3cc(OCc4ccccc4)ccc3c2)c2c(N)ncnc21 | 3.3 | –
Nc1ncnc2c1c(-c1ccc3cc(OCc4ccccc4)ccc3c1)nn2CC1CCNCC1 | 130 | –
CC(C)n1nc(-c2ccc3cc(OCc4ccccc4Cl)ccc3c2)c2c(N)ncnc21 | 140 | –
Nc1ncnc2c1c(-c1ccc3cc(OCc4ccccc4Cl)ccc3c1)nn2CC1CCNCC1 | 1100 | –
CC(C)n1nc(-c2ccc3cc(OCc4cccc(Cl)c4)ccc3c2)c2c(N)ncnc21 | 12 | –
Nc1ncnc2c1c(-c1ccc3cc(OCc4cccc(Cl)c4)ccc3c1)nn2CC1CCNCC1 | 100 | –
CC(C)n1nc(-c2ccc3cc(OCc4ccc(Cl)cc4)ccc3c2)c2c(N)ncnc21 | 13 | –
Nc1ncnc2c1c(-c1ccc3cc(OCc4ccc(Cl)cc4)ccc3c1)nn2CC1CCNCC1 | 460 | IC50 [2]: 1100 nM
CCOc1ccc2cc(-c3nn(C[C@@H](N)C(C)C)c4ncnc(N)c34)ccc2c1 | 1000 | –
CCOc1ccc2cc(-c3nn(C[C@H](C(C)C)N(C)C)c4ncnc(N)c34)ccc2c1 | 960 | –
CCOc1ccc2cc(-c3nn(C[C@H]4CCCN4)c4ncnc(N)c34)ccc2c1 | 970 | –

SMILES | EC50 (Toxoplasma gondii [1]) [nM] | further results
CCOc1ccc2cc(-c3nn(C[C@H]4CCCN4C)c4ncnc(N)c34)ccc2c1 | 860 | –
CCOc1ccc2cc(-c3nn(C4CCNCC4)c4ncnc(N)c34)ccc2c1 | 45 | –
CCOc1ccc2cc(-c3nn(C4CCN(C)CC4)c4ncnc(N)c34)ccc2c1 | 50 | IC50 [3]: 120 nM; GI50 [4]: > 10000 nM; IC50 (Ephrin type-A receptor 3): > 10000 nM; IC50 [5]: > 10000 nM; IC50 [6]: 10000 nM; IC50 [7]: > 10000 nM; IC50 [8]: > 10000 nM; GI50 (HL-60): > 10000 nM
CCOc1ccc2cc(-c3nn(C4CCN(CC)CC4)c4ncnc(N)c34)ccc2c1 | 90 | –
CCCN1CCC(n2nc(-c3ccc4cc(OCC)ccc4c3)c3c(N)ncnc32)CC1 | 160 | –
CCOc1ccc2cc(-c3nn(C4CCN(CCCN)CC4)c4ncnc(N)c34)ccc2c1 | 340 | –
CCOc1ccc2cc(-c3nn(C4CCN(C(C)=O)CC4)c4ncnc(N)c34)ccc2c1 | 29 | –
CCOc1ccc2cc(-c3nn(C4CCN(S(C)(=O)=O)CC4)c4ncnc(N)c34)ccc2c1 | 35 | –
CCOc1ccc2cc(-c3nn(CC4CCN(C)CC4)c4ncnc(N)c34)ccc2c1 | 140 | IC50 [3]: 3300 nM; GI50 [4]: > 10000 nM; IC50 (Ephrin type-A receptor 3): > 10000 nM; IC50 [9]: > 10000 nM; IC50 [5]: > 10000 nM; IC50 [6]: > 10000 nM; IC50 [7]: 4600 nM; IC50 [8]: > 10000 nM; GI50 (HL-60): > 10000 nM; IC50 [10]: 2.9 nM; EC50 (Toxoplasma gondii [11]): 1000 nM
CCOc1ccc2cc(-c3nn(CC4CCN(CC)CC4)c4ncnc(N)c34)ccc2c1 | 330 | –
CCOc1ccc2cc(-c3nn(CC4CCN(C(C)=O)CC4)c4ncnc(N)c34)ccc2c1 | – | IC50 [9]: > 10000 nM; IC50 [10]: 11 nM
CCOc1ccc2cc(-c3nn(CCC4CCNCC4)c4ncnc(N)c34)ccc2c1 | 140 | –
CCOc1ccc2cc(-c3nn(CCC4CCN(C)CC4)c4ncnc(N)c34)ccc2c1 | 49 | –
CCOc1ccc2cc(-c3nn(CCC4CCN(CC)CC4)c4ncnc(N)c34)ccc2c1 | 100 | –
CCCN1CCC(CCn2nc(-c3ccc4cc(OCC)ccc4c3)c3c(N)ncnc32)CC1 | 180 | –
CCOc1ccc2cc(-c3nn(CCC4CCN(CCCN)CC4)c4ncnc(N)c34)ccc2c1 | 1200 | –
